Measured values taken from ChEMBL document CHEMBL4346705, “(±)-trans-Dihydronarciclasine and (±)-trans-dihydrolycoricidine analogues modified in their ring A: Evaluation of their anticancer activity and a SAR study” (2019).

Tests used:
Type in all cases: functional
HCT-116 = experiment: Antiproliferative activity against human HCT116 cells assessed as cell viability at 10^-5 M incubated for 48 hrs by sulforhodamine B assay relative to control; settings: HCT-116, 48 h, read-out: Activity
T47D = experiment: Antiproliferative activity against human T47D cells assessed as cell viability at 10^-5 M incubated for 48 hrs by sulforhodamine B assay relative to control; settings: read-out: Activity
U-251 = experiment: Antiproliferative activity against human U251 cells assessed as cell viability at 10^-5 M incubated for 48 hrs by sulforhodamine B assay relative to control; settings: U-251, 48 h, read-out: Activity
HOP-92 = experiment: Antiproliferative activity against human HOP92 cells assessed as cell viability at 10^-5 M incubated for 48 hrs by sulforhodamine B assay relative to control; settings: HOP-92, 48 h, read-out: Activity
SW-620 = experiment: Antiproliferative activity against human SW620 cells assessed as cell viability at 10^-5 M incubated for 48 hrs by sulforhodamine B assay relative to control; settings: SW-620, 48 h, read-out: Activity
IGROV-1 = experiment: Antiproliferative activity against human IGROV1 cells assessed as cell viability at 10^-5 M incubated for 48 hrs by sulforhodamine B assay relative to control; settings: IGROV-1, 48 h, read-out: Activity
SK-OV-3 = experiment: Antiproliferative activity against human SKOV3 cells assessed as cell viability at 10^-5 M incubated for 48 hrs by sulforhodamine B assay relative to control; settings: SK-OV-3, 48 h, read-out: Activity
OVCAR-5 = experiment: Antiproliferative activity against human OVCAR5 cells assessed as cell viability at 10^-5 M incubated for 48 hrs by sulforhodamine B assay relative to control; settings: OVCAR-5, 48 h, read-out: Activity
OVCAR-3 = experiment: Antiproliferative activity against human OVCAR3 cells assessed as cell viability at 10^-5 M incubated for 48 hrs by sulforhodamine B assay relative to control; settings: OVCAR-3, 48 h, read-out: Activity
RPMI-8226 = experiment: Antiproliferative activity against human RPMI8226 cells assessed as cell viability at 10^-5 M incubated for 48 hrs by sulforhodamine B assay relative to control; settings: RPMI-8226, 48 h, read-out: Activity
K562 = experiment: Antiproliferative activity against human K562 cells assessed as cell viability at 10^-5 M incubated for 48 hrs by sulforhodamine B assay relative to control; settings: K562, 48 h, read-out: Activity
MDA-MB-435 = experiment: Antiproliferative activity against human MDA-MB-435 cells assessed as cell viability at 10^-5 M incubated for 48 hrs by sulforhodamine B assay relative to control; settings: MDA-MB-435, 48 h, read-out: Activity
BT-549 = experiment: Antiproliferative activity against human BT549 cells assessed as cell viability at 10^-5 M incubated for 48 hrs by sulforhodamine B assay relative to control; settings: BT-549, 48 h, read-out: Activity
TK-10 = experiment: Antiproliferative activity against human TK10 cells assessed as cell viability at 10^-5 M incubated for 48 hrs by sulforhodamine B assay relative to control; settings: TK-10, 48 h, read-out: Activity
HCC 2998 = experiment: Antiproliferative activity against human HCC2998 cells assessed as cell viability at 10^-5 M incubated for 48 hrs by sulforhodamine B assay relative to control; settings: HCC 2998, 48 h, read-out: Activity
UO-31 = experiment: Antiproliferative activity against human UO31 cells assessed as cell viability at 10^-5 M incubated for 48 hrs by sulforhodamine B assay relative to control; settings: UO-31, 48 h, read-out: Activity
SR = experiment: Antiproliferative activity against human SR cells assessed as cell viability at 10^-5 M incubated for 48 hrs by sulforhodamine B assay relative to control; settings: read-out: Activity
NCI-H460 = experiment: Antiproliferative activity against human NCI-H460 cells assessed as cell viability at 10^-5 M incubated for 48 hrs by sulforhodamine B assay relative to control; settings: NCI-H460, 48 h, read-out: Activity
Malme-3M = experiment: Antiproliferative activity against human MALME-3M cells assessed as cell viability at 10^-5 M incubated for 48 hrs by sulforhodamine B assay relative to control; settings: read-out: Activity
UACC-257 = experiment: Antiproliferative activity against human UACC257 cells assessed as cell viability at 10^-5 M incubated for 48 hrs by sulforhodamine B assay relative to control; settings: UACC-257, 48 h, read-out: Activity
CCRF-CEM = experiment: Antiproliferative activity against human CCRF-CEM cells assessed as cell viability at 10^-5 M incubated for 48 hrs by sulforhodamine B assay relative to control; settings: read-out: Activity
HCT-15 = experiment: Antiproliferative activity against human HCT15 cells assessed as cell viability at 10^-5 M incubated for 48 hrs by sulforhodamine B assay relative to control; settings: HCT-15, 48 h, read-out: Activity
COLO 205 = experiment: Antiproliferative activity against human COLO205 cells assessed as cell viability at 10^-5 M incubated for 48 hrs by sulforhodamine B assay relative to control; settings: COLO 205, 48 h, read-out: Activity
DU-145 = experiment: Antiproliferative activity against human DU145 cells assessed as cell viability at 10^-5 M incubated for 48 hrs by sulforhodamine B assay relative to control; settings: DU-145, 48 h, read-out: Activity
M14 = experiment: Antiproliferative activity against human M14 cells assessed as cell viability at 10^-5 M incubated for 48 hrs by sulforhodamine B assay relative to control; settings: M14, 48 h, read-out: Activity
PC-3 = experiment: Antiproliferative activity against human PC3 cells assessed as cell viability at 10^-5 M incubated for 48 hrs by sulforhodamine B assay relative to control; settings: PC-3, 48 h, read-out: Activity
SNB-19 = experiment: Antiproliferative activity against human SNB19 cells assessed as cell viability at 10^-5 M incubated for 48 hrs by sulforhodamine B assay relative to control; settings: SNB-19, 48 h, read-out: Activity
786-0 = experiment: Antiproliferative activity against human 786-0 cells assessed as cell viability at 10^-5 M incubated for 48 hrs by sulforhodamine B assay relative to control; settings: 786-0, 48 h, read-out: Activity
HL-60(TB) = experiment: Antiproliferative activity against human HL-60(TB) cells assessed as cell viability at 10^-5 M incubated for 48 hrs by sulforhodamine B assay relative to control; settings: HL-60, 48 h, read-out: Activity
A549 = experiment: Antiproliferative activity against human A549 cells assessed as cell viability at 10^-5 M incubated for 48 hrs by sulforhodamine B assay relative to control; settings: A549, 48 h, read-out: Activity
SF-268 = experiment: Antiproliferative activity against human SF268 cells assessed as cell viability at 10^-5 M incubated for 48 hrs by sulforhodamine B assay relative to control; settings: SF-268, 48 h, read-out: Activity
ACHN = experiment: Antiproliferative activity against human ACHN cells assessed as cell viability at 10^-5 M incubated for 48 hrs by sulforhodamine B assay relative to control; settings: read-out: Activity

O=C1NC2C(CC(O)C(O)C2O)c2cc3c(c(O)c21)OCO3 (racemic)
viability at 10 µM (HCT-116): -1.49% | viability at 10 µM (T47D): -8.46% | viability at 10 µM (U-251): -10.5% | viability at 10 µM (HOP-92): -19% | viability at 10 µM (SW-620): -0.05% | viability at 10 µM (IGROV-1): -7.85% | viability at 10 µM (SK-OV-3): -11.2% | viability at 10 µM (OVCAR-5): -13.4% | viability at 10 µM (OVCAR-3): -10.8% | viability at 10 µM (RPMI-8226): -24.2% | viability at 10 µM (K562): 1.86% | viability at 10 µM (MDA-MB-435): -42.2% | viability at 10 µM (BT-549): -12.5% | viability at 10 µM (TK-10): -12.6% | viability at 10 µM (HCC 2998): -22.8% | viability at 10 µM (UO-31): -31% | viability at 10 µM (SR): 6.14% | viability at 10 µM (NCI-H460): -15.1% | viability at 10 µM (Malme-3M): -48.7% | viability at 10 µM (UACC-257): -21.8% | viability at 10 µM (CCRF-CEM): 2.84% | viability at 10 µM (HCT-15): 1.81% | viability at 10 µM (COLO 205): -38.2% | viability at 10 µM (DU-145): -19.1% | viability at 10 µM (M14): -81.7% | viability at 10 µM (PC-3): -8.66% | viability at 10 µM (SNB-19): -8.68% | viability at 10 µM (786-0): -10.8% | viability at 10 µM (HL-60(TB)): -37.8% | viability at 10 µM (A549): -8.4% | viability at 10 µM (SF-268): -4.43% | viability at 10 µM (ACHN): -45.5%

CCOc1cc2c(cc1OCC)C1CC(O)C(O)C(O)C1NC2=O (racemic)
viability at 10 µM (HCT-116): 96.3% | viability at 10 µM (T47D): 90.2% | viability at 10 µM (U-251): 106% | viability at 10 µM (HOP-92): 102% | viability at 10 µM (SW-620): 99.4% | viability at 10 µM (IGROV-1): 107% | viability at 10 µM (SK-OV-3): 95.9% | viability at 10 µM (OVCAR-5): 101% | viability at 10 µM (OVCAR-3): 107% | viability at 10 µM (RPMI-8226): 102% | viability at 10 µM (K562): 88.4% | viability at 10 µM (MDA-MB-435): 109% | viability at 10 µM (BT-549): 101% | viability at 10 µM (TK-10): 118% | viability at 10 µM (HCC 2998): 106% | viability at 10 µM (UO-31): 76.4% | viability at 10 µM (SR): 91.2% | viability at 10 µM (NCI-H460): 111% | viability at 10 µM (Malme-3M): 102% | viability at 10 µM (UACC-257): 97.5% | viability at 10 µM (CCRF-CEM): 102% | viability at 10 µM (HCT-15): 101% | viability at 10 µM (COLO 205): 106% | viability at 10 µM (DU-145): 106% | viability at 10 µM (M14): 99.1% | viability at 10 µM (PC-3): 92.8% | viability at 10 µM (SNB-19): 105% | viability at 10 µM (786-0): 98.9% | viability at 10 µM (HL-60(TB)): 94.5% | viability at 10 µM (A549): 101% | viability at 10 µM (SF-268): 97.9% | viability at 10 µM (ACHN): 101%

CCOc1cc2c(c(O)c1OCC)C(=O)NC1C2CC(O)C(O)C1O (racemic)
viability at 10 µM (HCT-116): 104% | viability at 10 µM (T47D): 90.4% | viability at 10 µM (U-251): 98.4% | viability at 10 µM (HOP-92): 78.5% | viability at 10 µM (SW-620): 112% | viability at 10 µM (IGROV-1): 109% | viability at 10 µM (SK-OV-3): 98.6% | viability at 10 µM (OVCAR-5): 104% | viability at 10 µM (OVCAR-3): 104% | viability at 10 µM (RPMI-8226): 102% | viability at 10 µM (K562): 93.8% | viability at 10 µM (MDA-MB-435): 109% | viability at 10 µM (BT-549): 100% | viability at 10 µM (TK-10): 99.1% | viability at 10 µM (HCC 2998): 101% | viability at 10 µM (UO-31): 89.4% | viability at 10 µM (SR): 91.7% | viability at 10 µM (NCI-H460): 113% | viability at 10 µM (Malme-3M): 102% | viability at 10 µM (UACC-257): 99.8% | viability at 10 µM (CCRF-CEM): 103% | viability at 10 µM (HCT-15): 99% | viability at 10 µM (COLO 205): 110% | viability at 10 µM (DU-145): 105% | viability at 10 µM (M14): 100% | viability at 10 µM (PC-3): 100% | viability at 10 µM (SNB-19): 96% | viability at 10 µM (786-0): 94.1% | viability at 10 µM (HL-60(TB)): 102% | viability at 10 µM (A549): 92.8% | viability at 10 µM (SF-268): 96.4% | viability at 10 µM (ACHN): 106%

COc1cc2c(c3c1OCCO3)C(=O)NC1C2CC(O)C(O)C1O (racemic)
viability at 10 µM (HCT-116): 99.6% | viability at 10 µM (T47D): 87.9% | viability at 10 µM (U-251): 100% | viability at 10 µM (HOP-92): 77.7% | viability at 10 µM (SW-620): 107% | viability at 10 µM (IGROV-1): 107% | viability at 10 µM (SK-OV-3): 104% | viability at 10 µM (OVCAR-5): 103% | viability at 10 µM (OVCAR-3): 101% | viability at 10 µM (RPMI-8226): 100% | viability at 10 µM (K562): 106% | viability at 10 µM (MDA-MB-435): 110% | viability at 10 µM (BT-549): 98.3% | viability at 10 µM (TK-10): 98% | viability at 10 µM (HCC 2998): 99.9% | viability at 10 µM (UO-31): 89.8% | viability at 10 µM (SR): 97.1% | viability at 10 µM (NCI-H460): 106% | viability at 10 µM (Malme-3M): 103% | viability at 10 µM (UACC-257): 97.5% | viability at 10 µM (CCRF-CEM): 103% | viability at 10 µM (HCT-15): 102% | viability at 10 µM (COLO 205): 111% | viability at 10 µM (DU-145): 103% | viability at 10 µM (M14): 104% | viability at 10 µM (PC-3): 95.3% | viability at 10 µM (SNB-19): 100% | viability at 10 µM (786-0): 95.6% | viability at 10 µM (HL-60(TB)): 96.7% | viability at 10 µM (A549): 93.7% | viability at 10 µM (SF-268): 98.3% | viability at 10 µM (ACHN): 108%
